These results are taken from ChEMBL document CHEMBL2073973, “Mitotracker green is a P-glycoprotein substrate” (Biosci Rep, 2003).

For this data set, the target named is ATP-dependent translocase ABCB1 (Homo sapiens, UniProt P08183). Description: TP_TRANSPORTER: cell accumulation in Lucena-1 cells. Format: functional, cell-based.
Chain of ATP-dependent translocase ABCB1 (P08183 whole entry): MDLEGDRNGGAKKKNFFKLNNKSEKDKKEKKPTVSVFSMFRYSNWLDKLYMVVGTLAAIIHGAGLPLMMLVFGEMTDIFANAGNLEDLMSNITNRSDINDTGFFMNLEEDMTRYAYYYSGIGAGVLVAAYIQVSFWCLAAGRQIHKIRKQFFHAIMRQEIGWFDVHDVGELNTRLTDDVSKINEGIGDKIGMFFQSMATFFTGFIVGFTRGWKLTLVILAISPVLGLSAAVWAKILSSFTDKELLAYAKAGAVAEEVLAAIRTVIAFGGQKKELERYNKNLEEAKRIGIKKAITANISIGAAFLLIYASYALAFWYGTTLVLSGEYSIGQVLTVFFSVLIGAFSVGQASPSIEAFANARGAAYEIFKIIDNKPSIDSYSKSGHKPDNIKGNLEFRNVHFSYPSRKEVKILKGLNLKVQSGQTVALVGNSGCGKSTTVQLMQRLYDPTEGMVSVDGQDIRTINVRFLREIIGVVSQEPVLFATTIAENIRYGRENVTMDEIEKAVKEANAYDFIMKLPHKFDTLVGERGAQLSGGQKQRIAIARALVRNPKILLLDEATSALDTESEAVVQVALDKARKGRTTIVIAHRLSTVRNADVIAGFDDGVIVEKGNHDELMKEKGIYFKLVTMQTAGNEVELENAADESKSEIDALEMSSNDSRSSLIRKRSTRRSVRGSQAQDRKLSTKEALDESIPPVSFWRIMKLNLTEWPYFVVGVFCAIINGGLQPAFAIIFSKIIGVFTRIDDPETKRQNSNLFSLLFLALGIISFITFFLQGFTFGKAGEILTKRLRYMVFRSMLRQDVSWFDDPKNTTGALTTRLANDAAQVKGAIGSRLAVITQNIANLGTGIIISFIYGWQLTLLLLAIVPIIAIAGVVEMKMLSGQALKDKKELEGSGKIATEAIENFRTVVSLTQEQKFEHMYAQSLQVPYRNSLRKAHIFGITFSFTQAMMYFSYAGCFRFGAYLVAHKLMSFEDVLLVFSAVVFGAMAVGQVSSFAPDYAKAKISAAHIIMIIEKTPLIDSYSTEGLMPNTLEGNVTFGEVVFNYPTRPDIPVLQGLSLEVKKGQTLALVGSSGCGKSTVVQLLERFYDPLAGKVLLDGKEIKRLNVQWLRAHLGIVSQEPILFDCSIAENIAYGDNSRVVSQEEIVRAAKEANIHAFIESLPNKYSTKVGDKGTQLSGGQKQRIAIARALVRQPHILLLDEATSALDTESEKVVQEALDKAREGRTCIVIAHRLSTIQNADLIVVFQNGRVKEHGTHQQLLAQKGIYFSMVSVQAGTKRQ

Turning to `CN1C(=CC=Cc2n(Cc3ccc(CCl)cc3)c3cc(Cl)c(Cl)cc3[n+]2Cc2ccc(CCl)cc2)Oc2ccccc21.[Cl-]` [MITOTRACKER GREEN], the Activity entry is “substrate [+]”.
